According to US20030157553A1, “Methods of assaying for G protein-coupled receptor ligands and modulators” (priority 2000, published 2003):

Assays:
β2AR [1] = test: Direct binding assay of in vitro translated tritiated arrestins to purified β2AR reconstituted into phospholipid vesicles; conditions: activated by 0.1 mM agonist isoproterenol, FIG. 1A; for binding to activated unphosphorylated receptor: unphosphorylated β2AR
Source text: Mutagenesis and Biochemical Characterization of β-Arrestins—Mutations Arg169→Glu (CGG→GAG), Gln394→Ter (CAA→TAA), and Asp383→Ter (GAT→TAG) were introduced by polymerase chain reaction in β-arrestin construct pBARR (Gurevich et al. (1995) J. Biol. Chem. 270:720-731), that was used for in vitro transcription and translation, as described (Gurevich et al. (1995), supra). NcoI/HindIII 1404-base pair open reading frame was then subdloned into appropriately digested Escherichia coliexpression vector pTrcHisB (Invitrogen). All β-arrestin species were expressed in the in vitro translation system and tested in the direct binding assay (Gurevich et al. (1995), supra), overexpressed in E. coli, purified to apparent homogeneity (Gray-Keller et al. (1997) Biochemistry 36:7058-7063), and characterized in the agonist affinity shift assay (Gurevich et al. (1997) J. Biol Chem. 272:28849-28852), essentially as described.
Direct Binding Assay—In vitro translated tritiated arrestins (50 fmol) were incubated in 50 mM Tris-HCl, pH 7.5, 0.5 mM MgCl2, 1.5 mM dithiothreitol, 50 mM potassium acetate with 7.5 pmol of the various functional forms of rhodopsin or with P-β2AR or β2AR (100 fmol/assay) in a final volume of 50 μl for 5 min at 37° C. in room light (rhodopsin) or for 60 min at 30° C. in the presence of 0.1 mM -agonist isoproterenol. The samples were immediately cooled on ice and loaded onto 2 ml Sepharose 2B columns equilibrated with 20 mM Tris-HCl, pH 7.5, 2 mM EDTA. Bound arrestin eluted with receptor-containing membranes in the void volume (between 0.5 and 1.1 ml). Nonspecific binding determined in the presence of 0.3 μg of liposomes was subtracted.

β2AR [2] = test: Agonist affinity shift assay ([125I] iodopindolol), formation of high agonist affinity complex (HAC); assay type: binding; conditions: 1 μM arrestin, FIG. 2A
Source text: Mutagenesis and Biochemical Characterization of β-Arrestins—Mutations Arg169→Glu (CGG→GAG), Gln394→Ter (CAA→TAA), and Asp383→Ter (GAT→TAG) were introduced by polymerase chain reaction in β-arrestin construct pBARR (Gurevich et al. (1995) J. Biol. Chem. 270:720-731), that was used for in vitro transcription and translation, as described (Gurevich et al. (1995), supra). NcoI/HindIII 1404-base pair open reading frame was then subdloned into appropriately digested Escherichia coliexpression vector pTrcHisB (Invitrogen). […]
Agonist Affinity ShiftAssay—P-β2AR or β2AR (10-15 fmol/assay) was incubated in 0.25 ml of 10 mM Tris-HCl, pH 7.4, 100 mM NaCl (buffer A) containing 0.1 mg/ml bovine serum albumin in the presence of 65-75 fmol of [^125I] iodopindolol (NEN Life Science Products) and the indicated concentrations of arrestins and agonists for 60 min at 22° C. […] Receptor-containing liposomes with bound radioligand were eluted with buffer A (between 0.6 and 1.5 ml), and radioactivity was quantitated in a liquid scintillation counter. Nonspecific binding was determined in the presence of 10 μM alprenolol. […]

| binding to activated unphosphorylated receptor (β2AR [1]) | binding to activated and phosphorylated β2AR (β2AR [1]; phosphorylated β2AR (P-β2AR)) | Substance | percentage of HAC formed by unphosphorylated β2AR (β2AR [2]) |
| --- | --- | --- | --- |
| significantly higher binding |  | β-arrestin-(1-382): bovine β-arrestin mutant Asp383→Ter, truncated regulatory COOH terminus | 22±4% |
| bind poorly |  | β-arrestin-(1-393): bovine β-arrestin mutant Gln394→Ter, part of the regulatory COOH terminus deleted |  |
| bind poorly | readily bind | β-arrestin: wild type bovine β-arrestin, comparator for the mutants |  |
